Reference: PubChem BioAssay AID1963839 (Molecular Pharmacology Branch, DTP, NCI, 2024)
“And” between values parts separate entries of the source, which are not always exact repeats. Identical values can stand only once.

Test system: 817829-284-R-J1-PDC complex spheroid viability
Assay: Anticancer human tumor 817829-284-R-J1-PDC patient-derived colon adenocarcinoma cell line growth inhibition [POLQ]
Conditions: for viability, T/C: stronger effect = lower value
Protocol: Multicellular complex tumor spheroid response to Polymerase (POL) inhibitors (novobiocin, ART-558, RP6685) in combination with a variety of drugs and investigational agents in selected tumor cell lines
The POL inhibitors (novobiocin, ART-558, and RP6685) were evaluated both individually and in combination with standard of care and investigational anticancer small molecules within a complex spheroid model of solid tumors. . Complex spheroids include a stromal component modeled by human endothelial cells (HUVEC) and fibroblasts modeled by human mesenchymal stem cells (MSCs). The concentration ranges selected for each drug and investigational agent were based upon clinically achievable concentrations if the clinical Cmax of the agent was known.
Compounds. The drugs and investigational agents: novobiocin (NSC847541), ART-558 (NSC835418), RP-6685 (NSC848927), peposertib (NSC802822), ceralasertib (NSC780249), elimusertib (NSC800525), camonsertib (NSC841442), AZD-1390 (NSC803789), olaparib (NSC753686), talazoparib (NSC767125), rucaparib (NSC756644), sotorasib (NSC818433), MRTX-1133 (NSC836407), SN-38 (NSC673596), topotecan (NSC609699), epotoside (NSC141540), doxorubicin (NSC123127), gemcitabine (NSC613327), 5-fluorouracil (NSC19893), paclitaxel (NSC125973), vemurafenib (NSC761431), MSA-2 (NSC828583), SN-011 (NSC837082), adavosertib (NSC754352), prexasertib (NSC758257), carboplatin (NSC241240) and oxaliplatin (NSC266046), were obtained from the National Cancer Institute (NCI) Developmental Therapeutics Program Chemical Repository (21). The FDA-approved anticancer drug set is available from the Developmental Therapeutics Program at https://dtp.cancer.gov/organization/dscb/obtaining/. […] The stock solutions were prepared in dimethyl sulfoxide (DMSO, Sigma-Aldrich, St. Louis, MO, cat. D2650), except for the platinum compounds which were prepared in saline (Quality Biological, Gaithersburg, MD, cat. 114-055-101), at 800-fold the tested concentration and stored at -70 degrees C prior to their use. All drugs and investigational agents were tested over a range starting from a high concentration at or near the clinical Cmax and decreasing in half-log increments. If the clinical Cmax for an agent had not been determined, the highest concentration tested was 10 microM, except for SN-38, which was tested at a high concentration of 1 microM.
Cell Culture. All cells were maintained in an incubator at 37 degrees C and 5% CO2 with 95% humidity. The PDC lines were cultured according to standard operating procedures established by the NCI PDMR (https://pdmr.cancer.gov). Table 3 of the manuscript, lists the cell lines along with the number of the three cell types plated to form the mct-spheroids and media for tumor cell growth. After thawing, all PDC lines, except 997537-175-T-J1-PDC and 415267-285-R-J2-PDC, were cultured in Matrigel-coated flasks prepared with a working solution of 1X Ham's F-12 nutrient mix, without supplementation (Thermo Fisher Scientific, cat. 11765054), 100 U/mL penicillin-streptomycin (Thermo Fisher Scientific, cat. 15140122), and 2.5% Matrigel (Corning Inc., Corning, NY, cat. 354248) for the first three passages. The two PDC lines 997537-175-T-J1-PDC and 415267-285-R-J2-PDC were cultured on uncoated flasks. The 857933-349-R-J2-PDC line was cultured in 6C/Colon 1B media containing advanced DMEM/F-12 (Thermo Fisher Scientific, cat. 12634028), 10 mM HEPES (Thermo Fisher Scientific, cat. 15630080), 1X GlutaMAX supplement (Thermo Fisher Scientific, cat. 35050061), 0.1 mg/mL primocin (InvivoGen, San Diego, CA, cat. ant-pm-2), 10% defined fetal bovine serum, heat inactivated (HyClone Laboratories Inc., Logan, UT, cat. SH30070.03HI), 50% L-WRN conditioned media (ATCC, cat. CRL-3276), 1.25 mM N-Acetyl-L-cysteine (Sigma-Aldrich, cat. A9165), 10 mM nicotinamide (Sigma-Aldrich, cat. N0636), 1X B-27 supplement (Thermo Fisher Scientific, cat. 17504044), 1X N-2 supplement (Thermo Fisher Scientific, cat. […]

[1] = curve of first compound, second compound 0.0316 µM
[2] = curve of first compound, second compound 0.1 µM
[3] = curve of first compound, second compound 0.316 µM
[4] = curve of first compound, second compound 1 µM
[5] = curve of first compound, second compound 3.16 µM
[6] = curve of first compound, second compound 10 µM
[7] = second compound 0.0316 µM, first compound 0.0316 µM
[8] = second compound 0.0316 µM, first compound 0.1 µM
[9] = second compound 0.0316 µM, first compound 0.316 µM
[10] = second compound 0.0316 µM, first compound 1 µM
[11] = second compound 0.0316 µM, first compound 3.16 µM
[12] = second compound 0.0316 µM, first compound 10 µM
[13] = second compound 0.1 µM, first compound 0.0316 µM
[14] = second compound 0.1 µM, first compound 0.1 µM
[15] = second compound 0.1 µM, first compound 0.316 µM
[16] = second compound 0.1 µM, first compound 1 µM
[17] = second compound 0.1 µM, first compound 3.16 µM
[18] = second compound 0.1 µM, first compound 10 µM
[19] = second compound 0.316 µM, first compound 0.0316 µM
[20] = second compound 0.316 µM, first compound 0.1 µM
[21] = second compound 0.316 µM, first compound 0.316 µM
[22] = second compound 0.316 µM, first compound 1 µM
[23] = second compound 0.316 µM, first compound 3.16 µM
[24] = second compound 0.316 µM, first compound 10 µM
[25] = second compound 1 µM, first compound 0.0316 µM
[26] = second compound 1 µM, first compound 0.1 µM
[27] = second compound 1 µM, first compound 0.316 µM
[28] = second compound 1 µM, first compound 1 µM
[29] = second compound 1 µM, first compound 3.16 µM
[30] = second compound 1 µM, first compound 10 µM
[31] = second compound 3.16 µM, first compound 0.0316 µM
[32] = second compound 3.16 µM, first compound 0.1 µM
[33] = second compound 3.16 µM, first compound 0.316 µM
[34] = second compound 3.16 µM, first compound 1 µM
[35] = second compound 3.16 µM, first compound 3.16 µM
[36] = second compound 3.16 µM, first compound 10 µM
[37] = second compound 10 µM, first compound 0.0316 µM
[38] = second compound 10 µM, first compound 0.1 µM
[39] = second compound 10 µM, first compound 0.316 µM
[40] = second compound 10 µM, first compound 1 µM
[41] = second compound 10 µM, first compound 3.16 µM
[42] = second compound 10 µM, first compound 10 µM
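Further: spheroids exposed to compounds for 7 days.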
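Wherever viability, T/C is given: 100% = DMSO vehicle-treated spheroids.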

`CC(C)n1c(=O)n(C)c2cnc3cc(F)c(-c4ccc(OCCCN5CCCCC5)nc4)cc3c21` + COC1C(OC(N)=O)C(O)C(Oc2ccc3c(O)c(NC(=O)c4ccc(O)c(CC=C(C)C)c4)c(=O)oc3c2C)OC1(C)C was tested, and the IC50 [1] was greater than 10000 nM, the IC50 [2] was 7060 nM and the IC50 [3] was greater than 10000 nM. The IC50 [4] was 4940 nM, the IC50 [5] was 4970 nM and the IC50 [6] was 5050 nM. The viability, T/C [7] was 88.5%, the viability, T/C [8] was 95.9% and the viability, T/C [9] was 61.4%. It also gave a viability, T/C [10] of 93.1%, a viability, T/C [11] of 84.5% and a viability, T/C [12] of 52.6%. The viability, T/C [13] was 74.4%, the viability, T/C [14] was 82.5% and the viability, T/C [15] was 129%. For the same compound, the viability, T/C [16] was 102%, the viability, T/C [17] was 72.7% and the viability, T/C [18] was 40.2%. It also gave a viability, T/C [19] of 78.5%, a viability, T/C [20] of 96.5% and a viability, T/C [21] of 86.3%. It also gave a viability, T/C [22] of 93%, a viability, T/C [23] of 71.4% and a viability, T/C [24] of 55.8%. The viability, T/C [25] was 102%, the viability, T/C [26] was 102% and the viability, T/C [27] was 84%. The viability, T/C [28] was 81.1%, the viability, T/C [29] was 62.5% and the viability, T/C [30] was 31.8%. The viability, T/C [31] was 81.9%, the viability, T/C [32] was 87.8% and the viability, T/C [33] was 78.6%. It also gave a viability, T/C [34] of 85.8%, a viability, T/C [35] of 71.3% and a viability, T/C [36] of 16.9%. The viability, T/C [37] was 80.5%, the viability, T/C [38] was 65.4% and the viability, T/C [39] was 62.1%. The viability, T/C [40] was 81.4%, the viability, T/C [41] was 74.4% and the viability, T/C [42] was 16.9%.
With `CCc1cc2c(N3CCc4c(cc(Cn5ccnc5)cc4-c4cn(C)nc4C(F)(F)F)C3=O)cc(C)nc2c(OC)n1` + Cc1cccc(N(C)C(=O)C2C(O)CCN2c2nc(C)cc(C(F)(F)F)c2C#N)c1 the IC50 [1] was 1780 nM, the IC50 [2] was 2490 nM and the IC50 [3] was 1180 nM. It also gave an IC50 [4] of 1630 nM, an IC50 [5] of 2680 nM and an IC50 [6] of 1360 nM. For the same compound, the viability, T/C [7] was 85.3%, the viability, T/C [8] was 65.6% and the viability, T/C [9] was 68.5%. The viability, T/C [10] was 59.6%, the viability, T/C [11] was 41.8% and the viability, T/C [12] was 32.9%. The viability, T/C [13] was 88.9%, the viability, T/C [14] was 77.5% and the viability, T/C [15] was 62.2%. For the same compound, the viability, T/C [16] was 73.8%, the viability, T/C [17] was 43.6% and the viability, T/C [18] was 28.8%. The viability, T/C [19] was 72%, the viability, T/C [20] was 83.9% and the viability, T/C [21] was 94%. For the same compound, the viability, T/C [22] was 53.1%, the viability, T/C [23] was 38.8% and the viability, T/C [24] was 22.9%. It also gave a viability, T/C [25] of 84.1%, a viability, T/C [26] of 64.3% and a viability, T/C [27] of 81.8%. It also gave a viability, T/C [28] of 52.9%, a viability, T/C [29] of 43.3% and a viability, T/C [30] of 30.2%. The viability, T/C [31] was 79.4%, the viability, T/C [32] was 87.9% and the viability, T/C [33] was 66.6%. For the same compound, the viability, T/C [34] was 59.3%, the viability, T/C [35] was 51% and the viability, T/C [36] was 33.8%. The viability, T/C [37] was 71.4%, the viability, T/C [38] was 78.2% and the viability, T/C [39] was 66.2%. It also gave a viability, T/C [40] of 56.9%, a viability, T/C [41] of 34.3% and a viability, T/C [42] of 26.7%.
`Cn1ncnc1[C@H]1c2n[nH]c(=O)c3cc(F)cc(c23)N[C@@H]1c1ccc(F)cc1` was tested, and the viability, T/C (compound 0.000316 µM) was 80.8% and 91.3% and 74.5%, the viability, T/C (compound 0.001 µM) was 64% and 85.5% and 71.1% and the viability, T/C (compound 0.00316 µM) was 54.7% and 74.7% and 71.7%. For the same compound, the viability, T/C (compound 0.01 µM) was 62.7% and 56.4% and 57.5%, the viability, T/C (compound 0.0316 µM) was 38.1% and 61.4% and 34% and the viability, T/C (compound 0.1 µM) was 29.1% and 35.4% and 36.5%. The IC50 (curve of compound) was 11.8 nM and 37.5 nM and 14.7 nM.
